Experimental data taken from patent publication US6649623B1, “Cyclic amine derivatives and use thereof” (Shionogi & Co., Ltd., priority 1999, dated 2003).
Like-named read-outs stand apart in the source and are kept apart here.

Columns and labels:
KK-Ay mouse [1] = experiment: 7-day subcutaneous administration to KK-Ay mouse: body weight, food intake, blood glucose and insulin; assay type: in vivo; settings: 80 mg/kg s.c. for 7 days; for response vs control in vivo at 80 mg/kg: sc, 192 h, male KK-Ay mouse, average; for food intake (in words): KK-Ay mouse
Experimental: After 80 mg/kg of the present compound was administered subcutaneously for 7 days to 7-8 week aged male KK-Ay mouse (n=5˜7, CLEA JAPAN, INC), the amount of food intake from seventh day to eighth day, and body weight of eighth day were measured. For a control group, physiological saline was used. After the body weight was measured, the blood was collected from abdominal aorta by a syringe containing 50 U heparin and centrifuged 12,000×g for five min. Glucose in blood was measured by New Blood.Sugar.Test (Boehringer Ingelheim) and insulin was measured by Insulin-EIA Test (GLAOZYME). Each value is an average value and represented by percent to each value of eighth days in the control group. As to the compounds of and after Example 13, each corresponding hydrochloride was used.

KK-Ay mouse [2] = experiment: Plasma leptin concentration in KK-Ay mouse (mouse leptin RIA kit); assay type: in vivo; settings: 40 mg/kg s.c., after 24 hours, saline group 26.7±1.9 ng/ml
Experimental: The compound 3cs of Example 3 (40 mg/kg ) was administered subcutaneously to KK-Ay mouse. After 24 hours, the concentration of leptin in plasma was measured by using mouse leptin RIA measuring kit (Linco). The blood was collected from abdominal aorta by a syringe containing 50 U heparin and centrifuged 12,000×g for 5 min to give plasma.

[3] = body weight of eighth day, percent to value of control group (physiological saline), read-out: Body weight
[4] = food intake from seventh to eighth day, percent to value of control group, read-out: Food intake
[5] = glucose in blood on eighth day, percent to value of control group, read-out: Glucose
[6] = insulin in blood on eighth day, percent to value of control group, read-out: Insulin

Structure (SMILES) | response vs control in vivo at 80 mg/kg (KK-Ay mouse [1]; [3]) [%] | response vs control in vivo at 80 mg/kg (KK-Ay mouse [1]; [4]) [%] | response vs control in vivo at 80 mg/kg (KK-Ay mouse [1]; [5]) [%] | response vs control in vivo at 80 mg/kg (KK-Ay mouse [1]; [6]) [%] | food intake (in words) (KK-Ay mouse [1]) | concentration of leptin in plasma (KK-Ay mouse [2]) [ng/mL]
Fc1ccc(OCCCN2CC=CCC2)c(F)c1 [Example 1, 1-[3-(2,4-Difluoro-phenoxy)-propyl]-1,2,3,6-tetrahydro-pyridine] | 85 | 76 | 56 | 12 | – | –
Brc1ccc(OCCCN2CC=CCC2)c(Br)c1 [Example 2, 1-[3-(2,4-Dibromo-phenoxy)-propyl]-1,2,3,6-tetrahydro-pyridine] | 93 | 100 | 79 | 41 | little repressed | –
Clc1ccc(OCCCN2CC=CCC2)cc1Cl [Example 3, 1-[3-(3,4-Dichloro-phenoxy)-propyl]-1,2,3,6-tetrahydro-pyridine] | 84 | 82 | 73 | 49 | little repressed | 44.8 ± 5.2
Clc1cccc(OCCCN2CC=CCC2)c1 [Example 4, 1-[3-(3-Chlorophenoxy)-propyl]-1,2,3,6-tetrahydro-pyridine] | 87 | 79 | 84 | 47 | – | –
COc1cccc(OCCCN2CC=CCC2)c1 [Example 5, 1-[3-(3-Methoxy-phenoxy)-propyl]-1,2,3,6-tetrahydro-pyridine] | 94 | 88 | 62 | 38 | – | –
Clc1ccc(OCCCN2CC=CCC2)c(Cl)c1 [Example 6, 1-[3-(2,4-Dichloro-phenoxy)-propyl]-1,2,3,6-tetrahydro-pyridine] | 85 | 84 | 76 | 32 | little repressed | –
Clc1ccc(OCCCN2CC=CCC2)c(Cl)c1Cl [Example 7, 1-[3-(2,3,4-Trichloro-phenoxy)-propyl]-1,2,3,6-tetrahydro-pyridine] | 83 | 78 | 72 | 51 | – | –
Clc1ccc(COCCCN2CC=CCC2)cc1Cl [Example 8, 1-[3-(3,4-Dichloro-benzyloxy)-propyl]-1,2,3,6-tetrahydro-pyridine] | 94 | 96 | 78 | 31 | – | –
Clc1ccc(OCCN2CC=CCC2)cc1Cl [Example 9, 1-[2-(3,4-Dichloro-phenoxy)-ethyl]-1,2,3,6-tetrahydro-pyridine] | 87 | 83 | 71 | 53 | – | –
Clc1ccc(OCCCCN2CC=CCC2)cc1Cl [Example 10, 1-[4-(3,4-Dichloro-phenoxy)-butyl]-1,2,3,6-tetrahydro-pyridine] | 94 | 82 | 87 | 31 | – | –
Clc1ccc(NCCCN2CC=CCC2)cc1Cl [Example 11, (3,4-Dichlorophenyl)-[3-(3,6-dihydro-2-H-pyridin-1-yl)propyl]-amine] | 94 | 92 | 93 | 74 | – | –
C1=CCN(CCCOc2ccc3sccc3c2)CC1 [Example 17] | 94 | 84 | 99 | 84 | – | –
Clc1cc(Cl)cc(OCCCN2CC=CCC2)c1 [Example 21] | 89 | 74 | 80 | 53 | – | –
Cc1cc(OCCCN2CC=CCC2)ccc1F [Example 23] | 89 | 76 | 67 | 91 | – | –
Cc1ccc(OCCCN2CC=CCC2)c(Cl)c1 [Example 25] | 90 | 73 | 58 | 63 | – | –
Cc1ccc(OCCCN2CC=CCC2)cc1C [Example 27] | 93 | 77 | 87 | 42 | – | –
Brc1ccc(-c2ccc(OCCCN3CC=CCC3)cc2)cc1 [Example 30] | 95 | 73 | 62 | 50 | – | –
Fc1ccc(OCCCN2CC=CCC2)cc1F [Example 32] | 92 | 85 | 73 | 69 | – | –
FC(F)(F)c1ccc(COc2ccc(OCCCN3CC=CCC3)cc2Cl)cc1 [Example 33] | 93 | 72 | 54 | 44 | – | –
Fc1cccc(F)c1OCCCN1CC=CCC1 [Example 36] | 86 | 75 | 61 | 54 | – | –
FC(F)(F)c1cccc(OCCCN2CC=CCC2)c1 [Example 39] | 95 | 78 | 70 | 52 | – | –
FC(F)(F)c1cc(OCCCN2CC=CCC2)cc(C(F)(F)F)c1 [Example 41] | 88 | 77 | 56 | 48 | – | –
FC(F)(F)c1ccc(Oc2ccc(OCCCN3CC=CCC3)cc2)cc1 [Example 44] | 82 | 59 | 54 | 21 | – | –
Cc1ccc(F)c(OCCCN2CC=CCC2)c1 [Example 45] | 94 | 82 | 79 | 70 | – | –
Fc1cc(F)c(OCCCN2CC=CCC2)c(F)c1 [Example 46] | 90 | 91 | 58 | 53 | – | –
CC(C)(C)c1cccc(OCCCN2CC=CCC2)c1 [Example 49] | 91 | 80 | 56 | 73 | – | –
